Data as given in patent publication US20240269139A1, “COMPOUNDS FOR TARGETED PROTEIN DEGRADATION OF KINASES” (DANA-FARBER CANCER INSTITUTE, INC., priority 2020, published 2024).
“And” between values parts separate entries of the source, which are not always exact repeats. Equal values may be shown once. Read-outs that look alike come from different tables or passages of the source.

Columns and labels:
[1] = tested on: protein kinases (human kinome); format: cell-based; conditions: for Kinase hits: kinases significantly downregulated vs DMSO (fold change cutoff −1.25, P-value<0.01), ≤8 h, 0.1-5 μM degrader, 7 cell lines; for Total no. kinase hits: number of degraded kinases per library compound
[2] = molecular target: protein kinases (human kinome) (Homo sapiens, UniProt P30291); format: cell-based; conditions: for logFC of WEE1: WEE1 P30291-1
protein kinases (human kinome) (Homo sapiens, UniProt P30291), sequence (P30291 whole entry): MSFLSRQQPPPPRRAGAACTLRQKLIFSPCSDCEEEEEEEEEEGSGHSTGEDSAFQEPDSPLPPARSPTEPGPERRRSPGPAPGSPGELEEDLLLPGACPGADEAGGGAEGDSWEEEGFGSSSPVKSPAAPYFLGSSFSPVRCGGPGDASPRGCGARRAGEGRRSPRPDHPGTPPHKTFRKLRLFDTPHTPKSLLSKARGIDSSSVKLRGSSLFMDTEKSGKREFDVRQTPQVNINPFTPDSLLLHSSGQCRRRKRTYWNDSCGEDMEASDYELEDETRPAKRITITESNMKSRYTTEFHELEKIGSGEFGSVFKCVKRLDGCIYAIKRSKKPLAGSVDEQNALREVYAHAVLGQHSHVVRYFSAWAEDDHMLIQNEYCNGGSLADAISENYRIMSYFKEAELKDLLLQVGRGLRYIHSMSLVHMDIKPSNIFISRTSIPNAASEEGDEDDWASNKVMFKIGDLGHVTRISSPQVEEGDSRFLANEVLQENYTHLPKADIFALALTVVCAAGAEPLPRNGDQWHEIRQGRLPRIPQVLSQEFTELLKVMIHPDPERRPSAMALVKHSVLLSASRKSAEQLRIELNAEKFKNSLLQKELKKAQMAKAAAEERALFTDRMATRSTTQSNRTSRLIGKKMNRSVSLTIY

[3] = AURKB Q96GD4-5, experiment wp146
[4] = CDK9 (P50750-2) protein abundance, degrader vs DMSO, down
[5] = CLK1 P49759-3, experiment wp146
[6] = Experiment wp146, direction down
[7] = AURKB Q96GD4-5, experiment wp108
[8] = AURKB Q96GD4-5, experiment wp131

NC(=O)c1c(F)cccc1Nc1nc(Nc2ccc(S(=O)(=O)NCCOCCOCCOCCOCCNc3cccc4c3C(=O)N(C3CCC(=O)NC3=O)C4=O)cc2)ncc1Br (stereo not drawn) [TMX.02.138]
logFC [1, 3]: −1.832
logFC AURKB [1, 3]: −1.832
logFC GSK3B ([1]; Accession P49841-2, experiment wp146, direction down): −0.604
logFC [1, 4]: −1.889
logFC [1, 5]: −0.4648
logFC CLK1 [1, 5]: −0.4648
logFC MAPK8 (P45983-4) [1, 6]: −0.9813
logFC PRKAA1 (Q13131-2) [1, 6]: −0.7125
logFC GSK3B ([1]; GSK3B P49841-2, experiment wp146): −0.604
logFC MAPK8 ([1]; MAPK8 P45983-4, experiment wp146): −0.9813
logFC RPS6KA1 ([1]; RPS6KA1 (Q15418-2), experiment wp146): −0.501
logFC CDK9 (P50750-2) ([1]; experiment wp146): −1.889
logFC CDK16 (Q00536-2) ([1]; experiment wp146): −1.434
logFC PRKAA1 (Q13131-2) ([1]; experiment wp146): −0.7125
logFC RPS6KA1 (Q15418-2) ([1]; experiment wp146): −0.501

Cc1ncsc1-c1ccc([C@H](C)NC(=O)[C@@H]2C[C@@H](O)CN2C(=O)[C@@H](NC(=O)CCOCCOCCN2CCN(c3ccc(Nc4ncc(Cl)c(Nc5ccccc5S(=O)(=O)C(C)C)n4)cc3)CC2)C(C)(C)C)cc1 [FMF.06.098.1]
logFC WEE1 (P30291-1) ([2]; Experiment wp108): −1.98
logFC of WEE1 ([2]; experiment wp108): −1.98
logFC of WEE1 ([2]; experiment wp131): −2.183
logFC WEE1 (P30291-1) ([2]; experiment wp131): −2.183
logFC [1, 7]: −0.5246
logFC AURKB [1, 7]: −0.5246
logFC [1, 8]: −0.6726
logFC AURKB [1, 8]: −0.6726
logFC BUB1B ([1]; Accession O60566-3, experiment wp108, direction down): −0.4426
logFC BUB1B ([1]; Accession O60566-3, experiment wp131, direction down): −0.4232
logFC CSNK1D ([1]; Accession P48730-2, experiment wp108, direction down): −0.3812
logFC CSNK1D ([1]; Accession P48730-2, experiment wp114, direction down): −0.4039
logFC BUB1B ([1]; BUB1B (O60566-3), experiment wp108): −0.4426
logFC BUB1B ([1]; BUB1B (O60566-3), experiment wp131): −0.4232
logFC [1, 4]: −0.7233 and −0.6791
logFC CSNK1D ([1]; CSNK1D P48730-2, experiment wp108): −0.3812
logFC CSNK1D ([1]; CSNK1D P48730-2, experiment wp114): −0.4039
logFC CDK9 (P50750-2) ([1]; Experiment wp108): −0.7233
logFC PRKAA1 (Q13131-2) ([1]; Experiment wp131, direction down): −0.3695
logFC ([1]; FER (P16591-3), experiment wp114, direction down): −0.3986
logFC of FER ([1]; FER P16591-3, experiment wp114): −0.3986
logFC FGFR1 (P11362-21) ([1]; experiment wp108, direction of change down): −0.4121
logFC ABL2 (P42684-5) ([1]; experiment wp131): −0.6443
logFC CDK9 (P50750-2) ([1]; experiment wp131): −0.6791
logFC PRKAA1 (Q13131-2) ([1]; experiment wp131): −0.3695
logFC of ABL2 (P42684-5) ([1]; experiment wp131): −0.6443
logFC FGFR1 ([1]; protein FGFR1 (P11362-21), experiment wp108, down): −0.4121

CC(C)S(=O)(=O)c1ccccc1Nc1nc(Nc2ccc(N3CCN(CCOCCNC(=O)CNc4cccc5c4C(=O)N(C4CCC(=O)NC4=O)C5=O)CC3)cc2)ncc1Cl (stereo not drawn) [SK-3-91]
targets with significantly different degrader efficacy in the different cell lines with no obvious difference in protein expression ([1]; MOLT-4, KELLY, HEK293T): SIK2, LIMK1, FAK
Kinase hits [1]: AAK1, ABL1, ABL2, AKT2, AKT3, AURKA, AURKB, BCKDK, BLK, BMP2K, BMPR1A, BUB1, BUB1B, CDC7, CDK10, CDK12, CDK13, CDK14, CDK16, CDK17, CDK18, CDK2, CDK4, CDK5, CDK6, CDK7, CDK9, CO18A, CSK, CSNK1D, EPHB2, EPHB4, FER, FYN, GAK HIPK1, ITK, LATS1,
Total no. kinase hits [1]: 89

Nc1ncc(-c2ccc(S(=O)(=O)N(CCCNC(=O)CCOCCOCCOCCOCCOCCNc3cccc4c3C(=O)N(C3CCC(=O)NC3=O)C4=O)C3CC3)cc2)cc1-c1ccc2c(c1)CCNC2=O (stereo not drawn) [WH.10417.099]
logFC CSNK1D ([1]; Accession P48730-2, experiment wp056, direction down): −1.455
logFC CSNK1D ([1]; Accession P48730-2, experiment wp103, direction down): −1.301
logFC CSNK1D ([1]; Accession P48730-2, experiment wp107, direction down): −1.248
logFC CSNK1D ([1]; Accession P48730-2, experiment wp172, direction down): −0.6401
logFC GSK3B ([1]; Accession P49841-2, experiment wp056, direction down): −1.294
logFC GSK3B ([1]; Accession P49841-2, experiment wp103, direction down): −1.442
logFC GSK3B ([1]; Accession P49841-2, experiment wp105, direction down): −0.8403
logFC GSK3B ([1]; Accession P49841-2, experiment wp107, direction down): −1.446
logFC ([1]; CSNK1A1 (P48729-2), experiment wp107): −2.428
logFC CSNK1D ([1]; CSNK1D P48730-2, experiment wp056): −1.455
logFC CSNK1D ([1]; CSNK1D P48730-2, experiment wp103): −1.301
logFC CSNK1D ([1]; CSNK1D P48730-2, experiment wp107): −1.248
logFC CSNK1D ([1]; CSNK1D P48730-2, experiment wp172): −0.6401
logFC of CSNK1A1 (P48729-2) ([1]; Experiment wp107): −2.428
logFC GSK3B ([1]; GSK3B P49841-2, experiment wp056): −1.294
logFC GSK3B ([1]; GSK3B P49841-2, experiment wp103): −1.442
logFC GSK3B ([1]; GSK3B P49841-2, experiment wp105): −0.8403
logFC GSK3B ([1]; GSK3B P49841-2, experiment wp107): −1.446

Cc1ccc(C(=O)Nc2ccc(CN3CCN(CCCOCCOCCOCCNC(=O)COc4cccc5c4C(=O)N(C4CCC(=O)NC4=O)C5=O)CC3)c(C(F)(F)F)c2)cc1C#Cc1cnc2cccnn12 (stereo not drawn) [SB1-G-187, N-(4-((4-(1-((2-(2,6-dioxopiperidin-3-yl)-1,3-dioxoisoindolin-4-yl)oxy)-2-oxo-6,9,12-trioxa-3-azapentadecan-15-yl)piperazin-1-yl)methyl)-3 (trifluoromethyl)phenyl)-3-(imidazo[1,2-b]pyridazin-3-ylethynyl)-4-methylbenzamide]
kinases the bifunctional compound degrades ([1]; as stated for the structure in the embodiments): ABL1, ABL2, BLK, CDK14, CDK17, CDK5. CDK6, COQ8A, EPHA1, EPHA2, FER, FYN, GAK, IRAK1, LCK, LYN, MAP3K1, MAP3K20, MAP3K7, MAP4K2, MAP4K5, MAPK14, PDK1, PDK2, PDK3, RIPK1, RIPK2, SRC, STK10, TAOK3, and YES1
Kinase hits [1]: ABL1, ABL2, BLK, CDK14, CDK17, CDK5, CDK6, COQ8A, EPHA1, EPHA2, FER, FYN, GAK, IRAK1, LCK, LYN, MAP3K1, MAP3K20, MAP3K7, MAP4K2, MAP4K5, MAPK14, PDK1, PDK2, PDK3, RIPK1, RIPK2, SRC, STK10, TAOK3, YES1,
Total no. kinase hits [1]: 31
